According to US20230057359A1, “NOVEL USE OF STEVIOL” (SUNTORY HOLDINGS LIMITED, priority 2019, published 2023):

How the values were obtained:
[1] = system: normal human subcutaneous preadipocytes differentiated into adipocytes; assay: Cytotoxicity of steviol to adipocytes (WST-8 viable cell count); type: cell-based; settings: for Relative viable cell count (%): 10 days, Control=100%
Experimental: 5×10^5 normal human subcutaneous preadipocytes (Cat. No. PT-5020, Lonza Group AG) were precultured for 6 days in a T75 flask using a growth medium (PBM-2 medium supplemented with 10% FBS, 2 mM L-glutamine, 50 μg/mL gentamycin, and 37 ng/mL amphotericin-B, Cat. No. PT-8002, Lonza Group AG) in a CO2 incubator (37° C., 5% CO2; the same holds true for the description below). The cells were detached using 0.25% trypsin-EDTA, seeded at 10,000 cells/100 μL/well in a 96-well plate using the growth medium, and cultured overnight in a CO2 incubator. On the next day, the medium was replaced with 100 μL of a differentiation medium (PBM-2 medium supplemented with 10% FBS, 2 mM L-glutamine, 50 μg/mL gentamycin, 37 ng/mL amphotericin-B, insulin, dexamethasone, indomethacin, and 3-isobutyl-1-methylxanthine (IBMX), Cat. No. PT-8002, Lonza Group AG: the same holds true for the description below) supplemented with varying concentrations of steviol (0.001, 0.01, 0.1, 1, 10 or 100 μg/mL, dissolved in 0.1% DMSO (final concentration)). The cells were cultured for 10 days in a CO2 incubator to induce their differentiation into adipocytes. On the fourth and seventh days after the differentiation induction, the medium was replaced with a fresh medium (100 μL) having the same composition as above. A vehicle control composed of a differentiation medium supplemented with 0.1% DMSO (final concentration) was used as a negative control. Viable cell count measurement was performed by the WST-8 method. Specifically, the medium of each well after culture was replaced with a differentiation medium (100 μL) supplemented with a 1/10 amount of viable cell count measurement reagent SF, and the cells were incubated in a CO2 incubator. 30 minutes later and 90 minutes later, absorbance (450 nm, reference wavelength: 630 nm) was measured using a plate reader (VARIOSKAN FLASH, Thermo Fisher Scientific Inc.), and absorbance difference per 60 minutes was regarded as a relative viable cell count (Control=100%).

[2] = system: adipocytes differentiated from normal human subcutaneous preadipocytes; assay: Sugar uptake test in adipocytes (intracellular 2DG6P, Glucose Uptake-Glo); type: cell-based; settings: for Relative luminescence intensity (%) (relative intracellular 2DG6P level): 4 hours, DMSO=100%
Experimental: Normal human subcutaneous preadipocytes were precultured using the growth medium in the same manner as in Example 1. The cells were detached using 0.25% trypsin-EDTA, seeded at 10,000 cells/100 μL/well to a 96-well plate using the growth medium, and cultured overnight in a CO2 incubator. On the next day, the medium was replaced with the differentiation medium (100 μL). The cells were cultured for 10 days in a CO2 incubator to induce their differentiation into adipocytes. On the fourth and seventh days after the differentiation induction, the medium was replaced with a fresh differentiation medium (100 μL). Next, the medium was replaced with 100 μLL of a serum-free medium (PBM-2 medium supplemented with 2 mM L-glutamine, 50 μg/mL gentamycin, and 37 ng/mL amphotericin-B, Cat. No. PT-8002, Lonza Group AG), and the cells were cultured for 18 hours in a CO2 incubator. Subsequently, the medium was replaced with 100 μL of a glucose-free serum-free medium (DMEM, no glucose, Cat. No. 11966025, Thermo Fisher Scientific Inc.) supplemented with varying concentrations of steviol (10, 30 or 100 μg/mL, dissolved in 0.1% DMSO (final concentration)), and the cells were cultured for 4 hours in a CO2 incubator. A glucose-free serum-free medium supplemented with 100 μM acadesine (AICAR, Cat. No. A9978, Sigma-Aldrich Co., LLC) was used as a positive control, and a vehicle control composed of a glucose-free serum-free medium supplemented with 0.1% DMSO (final concentration) and a no-addition control composed of only a glucose-free serum-free medium were used as negative controls. After culture, intracellular 2-deoxyglucose-6-phosphate (2DG6P, 2-deoxyglucose (2DG) phosphorylation product) level was measured by the following procedures using Glucose Uptake-Glo Assay kit (Cat. No. J1341, Promega Corp.). The medium of each well was replaced with a DPBS solution (50 μL) supplemented with 1 mM 2DG. After incubation at room temperature for 10 minutes, a stop buffer (25 μL), a neutralization buffer (25 μL), and a 2DG6P detection reagent (100 μL) were added thereto. After incubation at room temperature for 60 minutes, luminescence intensity was measured using a plate reader (VARIOSKAN FLASH, Thermo Fisher Scientific Inc.), and relative luminescence intensity was regarded as a relative intracellular 2DG6P level. Significant difference among the test groups to be compared (no-addition group vs positive control group, vehicle control group vs steviol addition group) was tested by the Student's t test. The two-tailed test was conducted, and P<0.05 was regarded as having significant difference.

SMILES: C=C1C[C@@]23CC[C@H]4[C@@](C)(CCC[C@@]4(C)C(=O)O)[C@@H]2CC[C@]1(O)C3 [Steviol, steviol]
- cytotoxicity to adipocytes (in words) ([1]; 100 μg/mL steviol): no particular cytotoxicity to be noted was found
- Relative viable cell count (%) ([1]; steviol 0.01 μg/mL): 101.8%
- Relative viable cell count (%) ([1]; steviol 0.1 μg/mL): 101.7%
- Relative viable cell count (%) ([1]; steviol 1 μg/mL): 95.0%
- Relative viable cell count (%) ([1]; steviol 10 μg/mL): 103.6%
- Relative viable cell count (%) ([1]; steviol 100 μg/mL): 93.1%
- sugar uptake in adipocytes (in words) ([2]; 10, 30 or 100 μg/mL): promoted sugar uptake in adipocytes in a concentration-dependent manner
- Relative luminescence intensity (%) (relative intracellular 2DG6P level) ([2]; steviol 10 μg/mL): 109.6%
- Relative luminescence intensity (%) (relative intracellular 2DG6P level) ([2]; steviol 30 μg/mL): 142.5%
- Relative luminescence intensity (%) (relative intracellular 2DG6P level) ([2]; steviol 100 μg/mL): 216.2%
